For orientation: IC50 means the concentration at which inhibition is half-maximal.

Where a name gives a salt, the structure may show the parent alone.

human FXa, sequence (P00742 235-488 limits assumed): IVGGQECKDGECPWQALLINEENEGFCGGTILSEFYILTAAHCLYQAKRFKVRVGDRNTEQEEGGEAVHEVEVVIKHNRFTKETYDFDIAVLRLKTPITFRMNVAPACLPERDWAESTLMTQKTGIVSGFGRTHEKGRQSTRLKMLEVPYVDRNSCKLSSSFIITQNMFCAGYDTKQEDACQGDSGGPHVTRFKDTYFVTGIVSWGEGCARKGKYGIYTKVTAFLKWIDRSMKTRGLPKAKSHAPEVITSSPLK
human FXa, sequence (P00742 41-179 partner limits assumed): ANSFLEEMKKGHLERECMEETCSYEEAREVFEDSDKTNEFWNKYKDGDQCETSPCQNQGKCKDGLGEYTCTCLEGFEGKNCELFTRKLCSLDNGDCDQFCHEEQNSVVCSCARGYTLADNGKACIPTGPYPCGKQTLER

For this assay, the target named is human FXa (Homo sapiens, UniProt P00742). The experiment in a line: Inhibitory action of human activated blood coagulation factor X (FXa). The assay is classed as biochemical. Particulars: concentration inhibiting FXa activity by 50%; substrate S-2765, 37° C., absorbance at 405 nm. As to the method: (1) Inhibitory Action of Human Activated Blood Coagulation Factor X (FXa):
Test method: A solution (225 μL) of 0.05M tris-hydrochloric acid buffers (pH=8.3) containing 0.145 M of sodium chloride and 2 mM of calcium chloride, a test compound dissolved in dimethyl sulfoxide (5 μL) and human FXa (10 μL, 0.3 unit/ml) were added to a 96-well microplate and reacted at 37° C. for about 10 minutes, and then a substrate (10 μL, 3 mM, S-2765) was added to be reacted at 37° C. for 10 minutes. Then, after aqueous 50% acetic acid (25 μL) was added there to stop the reaction, the change of absorbance at 405 nm was measured by a microplatereader, and a concentration inhibiting FXa activity by 50% (IC50) was calculated.
Molecule `C/N=c1\scc(CN2CCN(C(=O)CCS(=O)(=O)c3ccc4cc(Cl)ccc4c3)CC2)n1C` [Example 5, N-((2Z)-4-((4-(3-((6-Chloro-2-naphthyl)sulfonyl)propanoyl)-1-piperazinyl)methyl)-3-methyl-1,3-thiazol-2(3H)-ylidene)-N-methylamine dihydrochloride] gave an IC50 of 57 nM. This lies in the double-digit nanomolar range.

The molecule `Cn1c(CN2CCN(C(=O)CCS(=O)(=O)c3ccc4cc(Cl)ccc4c3)CC2)csc1=N` [Example 12, 4-((4-(3-((6-Chloro-2-naphthyl)sulfonyl)propanoyl)-1-piperazinyl)methyl)-3-methyl-1,3-thiazol-2(3H)-imine dihydrochloride] showed an IC50 of 22 nM.

As for `C/N=c1\sc(C2CCN(C(=O)CCS(=O)(=O)c3ccc4cc(Cl)ccc4c3)CC2)c(CO)n1C` [Example 38], the IC50 was 11 nM.

The molecule `COC(=O)C1CN(CC2=CSC3=NCCN23)CCN1C(=O)CCS(=O)(=O)c1ccc2cc(Cl)ccc2c1` (stereo not shown) [Example 44, Methyl 1-(3-((6-chloro-2-naphthyl)sulfonyl)propanoyl)-4-(5,6-dihydroimidazo[2,1-b][1,3]thiazol-3-ylmethyl)piperazine-2-carboxylate] registered an IC50 of 14 nM.

The molecule `Cn1cc(C2CCN(C(=O)CCS(=O)(=O)c3ccc4cc(Cl)ccc4c3)CC2)sc1=N` [Example 58, 5-(1-(3-((6-Chloro-2-naphthyl)sulfonyl)propanoyl)-4-piperidinyl)-3-methyl-1,3-thiazol-2(3H)-imine] had a 50% inhibitory concentration (IC50) of 60 nM.

As to `C/N=c1\sc(C2CCN(C(=O)CCS(=O)(=O)c3ccc4cc(Cl)ccc4c3)CC2)c(C(=O)O)n1C` [Example 68, (2Z)-5-(1-(3-((6-Chloro-2-naphthyl)sulfonyl)propanoyl)-1-piperidinyl)-3-methyl-2-(methylimino)-2,3-dihydro-1,3-thiazole-4-carboxylic acid], the IC50 is 8.3 nM.

`C/N=c1\sc(C2CCN(C(=O)CCS(=O)(=O)c3ccc4cc(Cl)ccc4c3)CC2)c(C(=O)OC)n1C` [Example 77, Methyl (2Z)-5-(1-(3-((6-chloro-2-naphthyl)sulfonyl)propanoyl)-1-piperidinyl)-3-methyl-2-(methylimino)-2,3-dihydro-1,3-thiazol-4-carboxylate]: the IC50 amounted to 9.4 nM.

`C/N=c1\sccn1CCC1CCN(C(=O)CCS(=O)(=O)c2ccc3cc(Cl)ccc3c2)CC1` [Example 83] showed an IC50 of 6.7 nM.

`O=C(CCS(=O)(=O)c1ccc2cc(Cl)ccc2c1)N1CCC(/N=c2\sccn2CCO)CC1` [Example 92, 2-((2Z)-2-((1-(3-((6-Chloro-2-naphthyl)sulfonyl)propanoyl)-4-piperidinyl)imino)-1,3-thiazol-3(2H)-yl)ethanol] displayed an IC50 of 47 nM.

As to “N-((2Z)-5-(1-(3-((6-Chloro-2-naphthyl)sulfonyl)propanoyl)-1-piperidinyl)-3-methyl-1,3-thiazol-2(3H)-ylidene)-N-methylamine [Example 46]”, the IC50 came to 30 nM.
